Results published in patent US20260028348A1, “MODULATORS OF TNF-ALPHA ACTIVITY” (Forward Therapeutics, Inc., priority 2023, published 2026).

These molecules were tested on HEK Blue™ TNFα reporter cells (assay: TNF-α Induced HEK Blue Cellular Assay). Settings: TNF-α stimulated HEK Blue TNFα reporter cells, 24 hrs, secreted alkaline phosphatase (QUANTI-Blue, 620 nm).
Format: cell-based
Protocol: Test articles were diluted in DMSO and serially diluted into 384 well assay plate (Corning 3765), at final concentrations ranging from […] to 0.5 nM. HEK Blue™ TNFα reporter cells were added at a final density of 10,000 cell per well in assay media [DMEM (Gibco, cat #21063-029), 10% fetal bovine serum (ExcelBio, cat #FND500), 1% Penicillin-Streptomycin (Solarbio, cat #P1400-100]. TNF-α (R&D 210-TA-020/CF) was then added to the assay plate at a final concentration of […]. This plate was then incubated for 24 hrs at 37° C. and 5% CO2. Secreted alkaline phosphatase expression was then measured using QUANTI-Blue™(Invivogen), according to manufacturer instructions and read on an Envision microplate reader at 620 nm.
Inhibition data for test compound over a range of concentration was plotted as percentage inhibition of the test compound (100%=maximum inhibition). IC50 values were determined after correcting for background [(sample read-mean of low control)/(mean of high control-mean of low control)] whereby the low control is DMSO without stimulation and high control is DMSO with stimulation. The IC50 is defined as the concentration of test compound which produces […] and was quantified using the 4 parameter logistic equation to fit the data.

`[2H]C([2H])([2H])N1C(=O)c2cccc(OC(F)F)c2[C@H]2C[C@@H]1c1nc3ccc(-c4cnc5c(c4)CC[C@@]5(C)O)nc3n12` (single isomer, unassigned) [Example 67] and `[2H]C([2H])([2H])N1C(=O)c2cccc(OC(F)F)c2[C@H]2C[C@@H]1c1nc3ccc(-c4cnc5c(c4)CC[C@]5(C)O)nc3n12` (single isomer, unassigned) [Example 68] fall in the same range of IC50: 10000 to 30000 nM for the first, 10000 to 30000 nM for the second.

First: [2H]C([2H])([2H])N1C(=O)c2cccc(OC(F)F)c2[C@H]2C[C@@H]1c1nc3ccc(-c4cnc5c(c4)OCC[C@@]5(C)O)nc3n12 (single isomer, unassigned) [Example 69]
Second: [2H]C([2H])([2H])N1C(=O)c2cccc(OC(F)F)c2[C@H]2C[C@@H]1c1nc3ccc(-c4cnc5c(c4)OCC[C@]5(C)O)nc3n12 (single isomer, unassigned) [Example 70]
The IC50 of the first is higher: 10000 to 30000 nM for the first, 100 to 1000 nM for the second. The second is the more potent here.

`CN1C(=O)c2cccc(OC(F)F)c2[C@H]2C[C@@H]1c1nc3ccc(-c4cnc5c(c4)CCC5(C)O)cc3n12` (stereo partly drawn) [Example 1, (1R,11R)-18-(difluoromethoxy)-5-{7-hydroxy-7-methyl-5H,6H-cyclopenta[b]pyridin-3-yl}-12-methyl-2,9,12-triazapentacyclo[9.8.1.0^{2,10}.0^{3,8}.0^{14,19}]icosa-3(8),4,6,9,14(19),15,17-heptaen-13-one] and `CC1(O)CCc2cc(-c3ccc4nc5n(c4c3)[C@@H]3C[C@H]5NC(=O)c4cccc(OC(F)F)c43)cnc21` (stereo partly drawn) [Example 3, (1R,11R)-18-(difluoromethoxy)-5-{7-hydroxy-7-methyl-5H,6H-cyclopenta[b]pyridin-3-yl}-2,9,12-triazapentacyclo[9.8.1.0^{2,10}.0^{3,8}.0^{14,19}]icosa-3(8),4,6,9,14(19),15,17-heptaen-13-one] cannot be ordered by IC50: under 100 nM for the first, under 100 nM for the second.

`CN1C(=O)c2cccc(OC(F)F)c2[C@H]2C[C@@H]1c1nc3ccc(-c4ccc5c(c4)CC[C@@H]5N)cc3n12` [Example 2, (1R,11R)-5-[(1S)-1-amino-2,3-dihydro-1H-inden-5-yl]-18-(difluoromethoxy)-12-methyl-2,9,12-triazapentacyclo[9.8.1.0^{2,10}.0^{3,8}.0^{14,19}]icosa-3(8),4,6,9,14(19),15,17-heptaen-13-one] and `CN1C(=O)c2cccc(OC(F)F)c2[C@H]2C[C@@H]1c1nc3ccc(-c4ccc5c(c4)CC[C@H]5N)cc3n12` [Example 9, (1R,11R)-5-[(1R)-1-amino-2,3-dihydro-1H-inden-5-yl]-18-(difluoromethoxy)-12-methyl-2,9,12-triazapentacyclo[9.8.1.0^{2,10}.0^{3,8}.0^{14,19}]icosa-3(8),4,6,9,14(19),15,17-heptaen-13-one] cannot be ordered by IC50: under 100 nM for the first, under 100 nM for the second.

`N[C@H]1COc2cc(-c3ccc4nc5n(c4c3)[C@@H]3C[C@H]5NC(=O)c4cccc(OC(F)F)c43)ccc21` [Example 4, (1R,11R)-5-[(3R)-3-amino-2,3-dihydro-1-benzofuran-6-yl]-18-(difluoromethoxy)-2,9,12-triazapentacyclo[9.8.1.0^{2,10}.0^{3,8}.0^{14,19}]icosa-3(8),4,6,9,14(19),15,17-heptaen-13-one] and `N[C@H]1CCc2cc(-c3ccc4nc5n(c4c3)[C@@H]3C[C@H]5NC(=O)c4cccc(OC(F)F)c43)ccc21` [Example 6, (1R,11R)-5-[(1S)-1-amino-2,3-dihydro-1H-inden-5-yl]-18-(difluoromethoxy)-2,9,12-triazapentacyclo[9.8.1.0^{2,10}.0^{3,8}.0^{14,19}]icosa-3(8),4,6,9,14(19),15,17-heptaen-13-one] cannot be ordered by IC50: under 100 nM for the first, under 100 nM for the second.

`CN1C(=O)c2cccc(OC(F)F)c2[C@H]2C[C@@H]1c1nc3ccc(-c4ccc5c(c4)OC[C@@H]5N)cc3n12` [Example 5, (1R,11R)-5-[(3R)-3-amino-2,3-dihydro-1-benzofuran-6-yl]-18-(difluoromethoxy)-12-methyl-2,9,12-triazapentacyclo[9.8.1.0^{2,10}.0^{3,8}.0^{14,19}]icosa-3(8),4,6,9,14(19),15,17-heptaen-13-one] and `CN1C(=O)c2cccc(OC(F)F)c2[C@H]2C[C@@H]1c1nc3ccc(-c4ccc5c(c4)OCC[C@@H]5N)cc3n12` [Example 10, (1R,11R)-5-[(4S)-4-amino-3,4-dihydro-2H-1-benzopyran-7-yl]-18-(difluoromethoxy)-12-methyl-2,9,12-triazapentacyclo[9.8.1.0^{2,10}.0^{3,8}.0^{14,19}]icosa-3(8),4,6,9,14(19),15,17-heptaen-13-one] cannot be ordered by IC50: under 100 nM for the first, under 100 nM for the second.

`CN1C(=O)c2cccc(OC(F)F)c2[C@H]2C[C@@H]1c1nc3ccc(-c4cc(F)c5c(c4)CC[C@@H]5N)cc3n12` [Example 7, (1R,11R)-5-[(1S)-1-amino-7-fluoro-2,3-dihydro-1H-inden-5-yl]-18-(difluoromethoxy)-12-methyl-2,9,12-triazapentacyclo[9.8.1.0^{2,10}.0^{3,8}.0^{14,19}]icosa-3(8),4,6,9,14(19),15,17-heptaen-13-one] and `N[C@H]1CCc2cc(-c3ccc4nc5n(c4c3)[C@@H]3C[C@H]5NC(=O)c4cccc(OC(F)F)c43)cc(F)c21` [Example 13, (1R,11R)-5-[(1S)-1-amino-7-fluoro-2,3-dihydro-1H-inden-5-yl]-18-(difluoromethoxy)-2,9,12-triazapentacyclo[9.8.1.0^{2,10}.0^{3,8}.0^{14,19}]icosa-3(8),4,6,9,14(19),15,17-heptaen-13-one] cannot be ordered by IC50: under 100 nM for the first, under 100 nM for the second.

Compared with `CN1C(=O)c2cccc(OC(F)F)c2[C@H]2C[C@@H]1c1nc3ccc(-c4cnc5c(c4)CCC5=O)cc3n12` [Example 8, (1R,11R)-18-(difluoromethoxy)-12-methyl-5-{7-oxo-5H,6H-cyclopenta[b]pyridin-3-yl}-2,9,12-triazapentacyclo[9.8.1.0^{2,10}.0^{3,8}.0^{14,19}]icosa-3(8),4,6,9,14(19),15,17-heptaen-13-one], `CN1C(=O)c2cccc(OC(F)F)c2[C@H]2C[C@@H]1c1nc3ccc(-c4cnc5c(c4)CNC5=O)cc3n12` [Example 18, (1R,11R)-18-(difluoromethoxy)-12-methyl-5-{7-oxo-5H,6H-pyrrolo[3,4-b]pyridin-3-yl}-2,9,12-triazapentacyclo[9.8.1.0^{2,10}.0^{3,8}.0^{14,19}]icosa-3(8),4,6,9,14(19),15,17-heptaen-13-one] is higher in IC50: under 100 nM for the first, 100 to 1000 nM for the second.

`N[C@H]1COc2cc(-c3ccc4nc5n(c4c3)[C@@H]3C[C@H]5N(C4CC4)C(=O)c4cccc(OC(F)F)c43)ccc21` [Example 14, (1R,11R)-5-[(3R)-3-amino-2,3-dihydro-1-benzofuran-6-yl]-12-cyclopropyl-18-(difluoromethoxy)-2,9,12-triazapentacyclo[9.8.1.0^{2,10}.0^{3,8}.0^{14,19}]icosa-3(8),4,6,9,14(19),15,17-heptaen-13-one] and `CN1C(=O)c2cccc(OC(F)F)c2[C@H]2C[C@@H]1c1nc3ccc(-c4ccc5c(c4)CC[C@@H]5O)cc3n12` [Example 15, (1R,11R)-18-(difluoromethoxy)-5-[(1S)-1-hydroxy-2,3-dihydro-1H-inden-5-yl]-12-methyl-2,9,12-triazapentacyclo[9.8.1.0^{2,10}.0^{3,8}.0^{14,19}]icosa-3(8),4,6,9,14(19),15,17-heptaen-13-one] cannot be ordered by IC50: under 100 nM for the first, under 100 nM for the second.

`CN1C(=O)c2cccc(OC(F)F)c2[C@H]2C[C@@H]1c1nc3ccc(-c4cnc5c(c4)OCC[C@@H]5N)cc3n12` [Example 19, (1R,11R)-5-[(4S)-4-amino-2H,3H,4H-pyrano[3,2-b]pyridin-7-yl]-18-(difluoromethoxy)-12-methyl-2,9,12-triazapentacyclo[9.8.1.0^{2,10}.0^{3,8}.0^{14,19}]icosa-3(8),4,6,9,14(19),15,17-heptaen-13-one] and `CN1C(=O)c2cccc(OC(F)F)c2[C@H]2C[C@@H]1c1nc3ccc(-c4ccc5c(c4)OCCC5(C)N)cc3n12` (stereo partly drawn) [Example 24, (1R,11R)-5-(4-amino-4-methyl-2,3-dihydro-1-benzopyran-7-yl)-18-(difluoromethoxy)-12-methyl-2,9,12-triazapentacyclo[9.8.1.0^{2,10}.0^{3,8}.0^{14,19}]icosa-3(8),4,6,9,14(19),15,17-heptaen-13-one] cannot be ordered by IC50: under 100 nM for the first, under 100 nM for the second.

`CN1Cc2cc(-c3ccc4nc5n(c4c3)[C@@H]3C[C@H]5N(C)C(=O)c4cccc(OC(F)F)c43)cnc2C1=O` [Example 20, (1R,11R)-18-(difluoromethoxy)-12-methyl-5-{6-methyl-7-oxo-5H-pyrrolo[3,4-b]pyridin-3-yl}-2,9,12-triazapentacyclo[9.8.1.0^{2,10}.0^{3,8}.0^{14,19}]icosa-3(8),4,6,9,14(19),15,17-heptaen-13-one] and `CN1C(=O)c2cccc(OC(F)F)c2[C@H]2C[C@@H]1c1nc3ccc(-c4ccc5c(c4)NC(=O)C5(C)O)cc3n12` (stereo partly drawn) [Example 21, (1R,11R)-18-(difluoromethoxy)-5-(3-hydroxy-3-methyl-2-oxo-1H-indol-6-yl)-12-methyl-2,9,12-triazapentacyclo[9.8.1.0^{2,10}.0^{3,8}.0^{14,19}]icosa-3(8),4,6,9,14(19),15,17-heptaen-13-one] cannot be ordered by IC50: under 100 nM for the first, under 100 nM for the second.

For `CN1C(=O)c2cccc(OC(F)F)c2[C@H]2C[C@@H]1c1nc3cc(F)c(-c4cnc5c(c4)CCC5(C)N)cc3n12` (stereo partly drawn) [Example 27, (1R,11R)-5-{7-amino-7-methyl-5H,6H-cyclopenta[b]pyridin-3-yl}-18-(difluoromethoxy)-6-fluoro-12-methyl-2,9,12-triazapentacyclo[9.8.1.0^{2,10}.0^{3,8}.0^{14,19}]icosa-3(8),4,6,9,14(19),15,17-heptaen-13-one; formic acid], the IC50 was under 100 nM.
